# Results as given in patent US20200237759A1, “DOSAGE REGIME AND METHOD FOR TREATING PULMONARY ARTERIAL HYPERTENSION” (Altavant Sciences GmbH, priority 2019, published 2020).
# How the values were obtained:
# urine 5-HIAA/24 hours = assay: Part 2 MAD biomarker: urine 5-HIAA/24 hours change from Day 1; type: in vivo, human; conditions: Days 7 and 14, all dose groups
# From the text: (§1) Biomarkers were to be evaluated in Part 2 by measuring concentrations of serotonin (5-hydroxytryptamine [5-HT]) in serum and 5-hydroxyindoleacetic acid (5-HIAA) in plasma and urine. As well, the relationship of biomarkers to PK parameters was to be evaluated.
# (§2) The biomarker analysis was to be based on the Biomarker Population (all subjects with evaluable biomarker measurements at baseline [Day 1 predose] and at least one after dosing [Day 7 or Day 14]).
# (§3) Biomarker data were to be collected only in Part 2. The following biomarkers were to be analyzed: • Serum 5-HT • Plasma 5-HIAA • Urine 5-HIAA/24 hours (as measured, adjusted, estimated, and per gram creatinine)
# Linear regression was to be performed using biomarker changes, absolute and relative (%), from Day 1, at predose on Day 7 or Day 14 versus AUC0-24, Cmax, and Cmin in corresponding study days. The slopes and corresponding 95% confidence intervals (CIs) were to be tabulated. […]
# The biomarker portion of the study was conducted in Part 2 MAD using the Biomarker Population. The biomarkers evaluated were serum 5-HT and plasma 5-HIAA, as well as urine 5-HIAA/24 hours (as measured, adjusted, estimated, and per gram creatinine). Urinary 5-HIAA was determined by a validated (21 C.F.R. 58, GLP-compliant) method using liquid chromatographic separation and tandem mass spectrometry detection. […]
# Biomarker data were analyzed for each KAR5585 dose separately, for all KAR5585 doses pooled, and for all placebo subjects pooled.
# Urine 5 HIAA/24 hour was analyzed in 4 different manners: as measured in the 24-hour collection and (in order to correct for any collection errors) adjusted for creatinine excretion, estimated by the expected creatinine excretion for the subject (as defined in and expressed per gram creatinine. Results were similar for each of the 4 manners and are presented in this report for measured urine. Tables and figures for adjusted, estimated, and per-gram creatinine results are presented in Section 14. […]
# [1] = system: plasma 5-HIAA (a PD marker of 5-HT synthesis); assay: Part 2 MAD biomarker: plasma 5-HIAA change from Day 1; type: in vivo, human
# From the text: as §1, §2, §3
# The a priori primary biomarker endpoint was to be the change in plasma 5-HIAA concentration on Day 14 from Day 1.
# Linear regression was to be performed using biomarker changes, absolute and relative (%), from Day 1, at predose on Day 7 or Day 14 versus AUC0-24, Cmax, and Cmin in corresponding study days. The slopes and corresponding 95% confidence intervals (CIs) were to be tabulated.
# Summary statistics (mean, standard deviation [SD], median, minimum [Min], and maximum [Max]) were to be tabulated for each biomarker, by Cohort, with absolute and relative (%) changes from Day 1 predose.
# The values were to be tabulated with P values testing whether the difference of changes was equal to 0.
# The biomarker portion of the study was conducted in Part 2 MAD using the Biomarker Population. The biomarkers evaluated were serum 5-HT and plasma 5-HIAA, as well as urine 5-HIAA/24 hours (as measured, adjusted, estimated, and per gram creatinine). Urinary 5-HIAA was determined by a validated (21 C.F.R. 58, GLP-compliant) method using liquid chromatographic separation and tandem mass spectrometry detection.
# The Biomarker Population consisted of all subjects with evaluable baseline (Day 1 predose) and at least one postdose (Day 7 or Day 14) biomarker measurements.
# Biomarker data were analyzed for each KAR5585 dose separately, for all KAR5585 doses pooled, and for all placebo subjects pooled. […]
# [2] = Safety and tolerability in healthy adult subjects (Study KAR5585-101); type: in vivo, human
# [3] = Part 1 SAD plasma pharmacokinetics of KAR5585 and KAR5417 after a single oral dose of KAR5585 (fasting; fed food effect); conditions: for AUC0-inf Geometric Mean / AUC0-tau Geometric Mean / Cmax Geometric Mean: 400 mg KAR5585 single oral dose
# Description: Food effect was to be evaluated in Part 1, Period 2. Part 2 was permitted to begin before Part 1 was completed and, in each part, the data from each dose Cohort were to be reviewed for safety before the next dose Cohort was enrolled.
# Part 1 had 6 Cohorts of 12 subjects each (for a total of 72 subjects) and Part 2 had 4 Cohorts of 12 subjects each (for a total of 48 subjects). In Part 1, the 12 subjects in Cohort 3 (400 mg) were studied twice, once under fasting conditions (Period 1) and once under fed conditions (Period 2) for food-effect assessment.
# Pharmacokinetic data were to be summarized descriptively.
# [4] = 100 mg to 700 mg single dose, 7-fold increase in dose
# [5] = 700 mg to 2000 mg single dose, 2.86-fold increase in dose
# [6] = KAR5585 100 mg single oral dose, fasted, Cohort 1
# [7] = KAR5585 200 mg single oral dose, fasted, Cohort 2
# [8] = KAR5585 400 mg single oral dose, fasted, Cohort 3A
# [9] = KAR5585 400 mg single oral dose, fed, Cohort 3B
# [10] = KAR5585 700 mg single oral dose, fasted, Cohort 4
# [11] = KAR5585 1200 mg single oral dose, fasted, Cohort 5
# [12] = KAR5585 2000 mg single oral dose, fasted, Cohort 6
compound,measurement,setting,value
"CCOC(=O)[C@@H]1CC2(CCN(c3cc(O[C@H](c4ccc(Cl)cc4-c4ccccc4)C(F)(F)F)nc(N)n3)CC2)CN1 [KAR5585, (S)-ethyl 8-(2-amino-6-((R)-1-(5-chloro-[1,1′-biphenyl]-2-yl)-2,2,2-trifluoroethoxy)pyrimidin-4-yl)-2,8-diazaspiro[4.5]decane-3-carboxylate]",absolute and percent changes from Day 1 in creatinine-normalized urine 5-HIAA versus placebo,urine 5-HIAA/24 hours,statistically significant in favor of KAR5585
same,mean percent difference of change from Day 1 in plasma 5-HIAA between KAR5585 and placebo,"[1]; Day 7, any dose group",not significant
same,mean difference of changes from Day 1 to Day 14 in plasma 5-HIAA compared to placebo,"[1]; each dose group and all doses combined, Day 14",statistically significant in favor of KAR5585
same,tolerability,"[2]; 400 mg single oral dose under fed conditions, 9 healthy adult subjects",well-tolerated
same,tolerability throughout the trial,"[2]; Part 1 and Part 2, all doses",well tolerated throughout the trial
same,safety and tolerability,"[2]; multiple ascending oral doses 100-400 mg BID up to 14 days, 36 healthy adult subjects",safe and well-tolerated
same,increase in mean AUC0-24,[3]; [4],8.7 fold
same,increase in mean AUC0-inf,[3]; [4],8.8 fold
same,increase in AUC0-24,[3]; [5],1.86 fold
same,increase in AUC0-inf,[3]; [5],1.78 fold
same,AUC0-inf Geometric Mean,[3]; Cohort 3A (Fasting),288 ng·h/mL
same,AUC0-tau Geometric Mean,[3]; Cohort 3A (Fasting),176 ng·h/mL
same,Cmax Geometric Mean,[3]; Cohort 3A (Fasting),42 ng/mL
same,AUC0-inf Geometric Mean,[3]; Cohort 3B (Fed),903 ng·h/mL
same,AUC0-tau Geometric Mean,[3]; Cohort 3B (Fed),854 ng·h/mL
same,Cmax Geometric Mean,[3]; Cohort 3B (Fed),165 ng/mL
same,AUC0-12 (Mean),[3]; [6],48.1 ng·h/mL
same,AUC0-24 (Geo. Mean),[3]; [6],47.5 ng·h/mL
same,AUC0-∞ (Geo. Mean),[3]; [6],47.5 ng·h/mL
same,Cmax/D Geo. Mean,[3]; [6],0.132 (ng/mL)/mg
same,Cmax/D Mean,[3]; [6],0.139 (ng/mL)/mg
same,V2/F Geo. Mean,[3]; [6],5190 L
same,V2/F Mean,[3]; [6],5680 L
same,t1 Geo. Mean,[3]; [6],1.71 h
same,t1 Mean,[3]; [6],1.89 h
same,AUC0-12 (Geo. Mean),[3]; [7],83.3 ng·h/mL
same,AUC0-24 (Geo. Mean),[3]; [7],93.4 ng·h/mL
same,AUC0-∞ (Geo. Mean),[3]; [7],95.3 ng·h/mL
same,Cmax/D Geo. Mean,[3]; [7],0.0875 (ng/mL)/mg
same,Cmax/D Mean,[3]; [7],0.0961 (ng/mL)/mg
same,V2/F Geo. Mean,[3]; [7],9610 L
same,V2/F Mean,[3]; [7],10300 L
same,t1 Geo. Mean,[3]; [7],3.17 h
same,t1 Mean,[3]; [7],3.63 h
same,AUC0-24 (Geo. Mean),[3]; [8],283 ng·h/mL
same,AUC0-∞ (Geo. Mean),[3]; [8],288 ng·h/mL
same,Cmax/D Geo. Mean,[3]; [8],0.105 (ng/mL)/mg
same,Cmax/D Mean,[3]; [8],0.132 (ng/mL)/mg
same,V2/F Geo. Mean,[3]; [8],8100 L
same,V2/F Mean,[3]; [8],8330 L
same,t1 Geo. Mean,[3]; [8],4.04 h
same,t1 Mean,[3]; [8],4.08 h
same,AUC0-24 (Geo. Mean),[3]; [9],876 ng·h/mL
same,AUC0-tau Geo. Mean,[3]; [9],854 ng·h/mL
same,AUC0-∞ (Geo. Mean),[3]; [9],903 ng·h/mL
same,Cmax (Geo. Mean),[3]; [9],165 ng/mL
same,Cmax/D Geo. Mean,[3]; [9],0.413 (ng/mL)/mg
same,Cmax/D Mean,[3]; [9],0.422 (ng/mL)/mg
same,V2/F Geo. Mean,[3]; [9],2730 L
same,V2/F Mean,[3]; [9],2780 L
same,t1 Geo. Mean,[3]; [9],4.26 h
same,t1 Mean,[3]; [9],4.45 h
same,AUC0-12 (Mean),[3]; [10],392 ng·h/mL
same,Cmax (Geo. Mean),[3]; [10],95.2 ng/mL
same,Cmax/D Geo. Mean,[3]; [10],0.136 (ng/mL)/mg
same,Cmax/D Mean,[3]; [10],0.142 (ng/mL)/mg
same,V2/F Geo. Mean,[3]; [10],8390 L
same,V2/F Mean,[3]; [10],9120 L
same,t1 Geo. Mean,[3]; [10],3.42 h
same,t1 Mean,[3]; [10],3.46 h
same,tmax (Median),[3]; [10],1.75 h
same,AUC0-12 (Geo. Mean),[3]; [11],356 ng·h/mL
same,AUC0-12 (Mean),[3]; [11],402 ng·h/mL
same,AUC0-24 (Geo. Mean),[3]; [11],400 ng·h/mL
same,AUC0-tau Mean,[3]; [11],364 ng·h/mL
same,AUC0-∞ (Geo. Mean),[3]; [11],406 ng·h/mL
same,Cmax/D Geo. Mean,[3]; [11],0.0568 (ng/mL)/mg
same,Cmax/D Mean,[3]; [11],0.0692 (ng/mL)/mg
same,V2/F Geo. Mean,[3]; [11],14500 L
same,V2/F Mean,[3]; [11],16900 L
same,t1 Geo. Mean,[3]; [11],3.40 h
same,t1 Mean,[3]; [11],3.58 h
same,Cmax (Geo. Mean),[3]; [12],95.1 ng/mL
same,Cmax (Mean),[3]; [12],104 ng/mL
same,Cmax/D Geo. Mean,[3]; [12],0.0475 (ng/mL)/mg
same,Cmax/D Mean,[3]; [12],0.0522 (ng/mL)/mg
same,V2/F Geo. Mean,[3]; [12],20600 L
same,V2/F Mean,[3]; [12],25100 L
same,t1 Geo. Mean,[3]; [12],4.76 h
same,t1 Mean,[3]; [12],4.84 h
same,tmax (Median),[3]; [12],2.00 h
same,time up to which concentrations remained above the LLOQ,"[3]; single 100 mg KAR5585, fasting",up to 4 hours
same,time up to which concentrations remained above the LLOQ,"[3]; single 200 mg KAR5585, fasting",up to 12 hours
same,time up to which concentrations remained above the LLOQ,"[3]; single 400 mg KAR5585, fasting",up to 12 hours
same,time up to which concentrations remained above the LLOQ,"[3]; single 700 mg KAR5585, fasting",up to 12 hours
same,time up to which concentrations remained above the LLOQ,"[3]; single 1200 mg KAR5585, fasting",up to 12 hours
